Patent US20240122930A1, “INTEGRIN INHIBITORS AND USES THEREOF IN COMBINATION WITH OTHER AGENTS” (Pliant Therapeutics, Inc., priority 2022, published 2024)
Values joined by “and” are separate entries in the source; they are usually repeats but may differ in a detail not shown here. Equal values may be shown once. “Also recorded” adds a separate entry of the source.

Experiments:
[1] = Dose-Dependent Target Engagement (FIG. 12, prior studies); format: in vivo, human
Description: FIG. 12 through FIG. 33 illustrate various details and results from the clinical trial. […] In FIG. 12, BAL refers to bronchoalveolar lavage; pSmad2/Smad2 refers to ratio of phosphorylated Smad2 to total Smad2; and QD refers to once daily. **** refers to p<0.0001.

[2] = test system: explanted human lung tissue from patients with idiopathic pulmonary fibrosis; assay: Fibrosis-related gene expression (nCounter Fibrosis Panel) in precision cut lung slices; format: cell-based
Description: Briefly, tissue samples from patients with IPF were acquired at the time of lung transplantation. […] Treated slices were lysed in mRNA-compatible buffer for gene expression analysis. For this study, the lysate from n=6 slices per treatment per lung were pooled for analysis using the nCounter Fibrosis Panel (Nanostring) on the nCounter Max analyzer (Nanostring). This commercially available panel of 770 genes includes genes related to initial tissue damage response, chronic inflammation, proliferation of pro-fibrotic cells, and tissue modification leading to fibrotic disease. Technical quality control and normalization of raw Nanostring mRNA count data was performed using an R framework developed by Bhattacharya et al. (Bhattacharya A. et al., Brief Bioinform. 2021 May 20; 22(3):bbaa163; herein incorporated by reference in its entirety). The R packages limma (see URL www.bioconductor.org/packages/release/bioc/html/limma.html, which is incorporated herein by reference in its entirety) and voom (Law, C.

[3] = test system: IPF-derived human lung fibroblasts; assay: LAP adhesion assay, IPF-derived human lung fibroblasts (xCELLigence); format: cell-based; settings: adhesion to LAP, FIG. 3B
Experimental: Two latency associated peptide (LAP) adhesion binding assays were devised using primary human lung cells, including normal (healthy) human bronchial epithelial cells and human lung fibroblasts (healthy and IPF).
Human lung fibroblasts derived from normal and IPF lung tissue are known to express αVβ1 integrin. The IPF-derived human lung fibroblasts were prepared for the assay by dissociation with trypsin/EDTA, and were seeded at 20,000 cells per well on 96 well plates (ACEA Bioscience E-plate View, Acea Biosciences; San Diego, CA) previously coated with […] of recombinant human LAP (R&D Systems; Minneapolis, MN) and blocked with 4% bovine serum albumin. Cell index (electrical impedance) was measured to assess cell attachment/spreading every 3 minutes for 24 hours at 37° C./5% CO2 using the xCELLigence RTCA MP Instrument (Acea Biosciences; San Diego, CA). […] In the assay, the IPF-derived human lung fibroblasts were separately incubated with: the αVβ1-selective small molecule inhibitor; the selective antibody αVβ6 inhibitor, 3G9; and Compound 5.

[4] = test system: PRO-C3, Type III collagen synthesis neoepitope; assay: Phase 2a clinical trial: serum biomarker PRO-C3; format: in vivo, human; settings: IPF participants, 40 to 320 mg, 4 to 24 weeks
Experimental: Blank columns represent 40 mg Compound 5 dosage. Grid pattern filled columns represent 80 mg Compound 5 dosage. Diagonal line filled columns represent 160 mg Compound 5 dosage. Dot filled columns represent all participants dosed with Compound 5. […] In FIG. 21, LS refers to Least Squares and SEM refers to Standard Error of Mean.
PRO-C3 and PRO-C6, serum biomarkers of type III and VI collagen synthesis, respectively, were previously shown to be elevated in patients with IPF and associated with progressive disease, according to Respir Res. 2019 Jul. 12; 20(1):148. Doi: 10.1186/s12931-019-1118-7, which is herein incorporated by reference in its entirety. Change from baseline was analyzed using a mixed model for repeated measures with terms for treatment group, visit, baseline value, and treatment-by-visit interaction. LS refers to Least Squares; SE refers to Standard Error.
Med. 2022 June; 10(6):593-602, which is incorporated herein by reference in its entirety. […] Res. 2019 Jul. 12; 20(1):148, which is incorporated herein by reference in its entirety. ** denotes that p<0.01 vs placebo. LS refers to Least Squares. SE refers to Standard Error. Integrin beta-6 data was reported in relative quantitation log2 scale.

[5] = pSMAD2:SMAD2 ratio in BAL and plasma Cmax in healthy subjects; format: in vivo, human; settings: male, human, plasma, 40 mg/day, after the dose on Day 7, subjects of FIG. 8A-8F; read-out: Cmax (peak of the blood plasma concentration)
Experimental: (§1) In order to evaluate the change of pSMAD2 as a biomarker of TGF-β activity following administration of an integrin inhibitor, and to determine a therapeutically effective dosage and an effective blood plasma Cmax of the integrin inhibitor, healthy subjects were administered Compound 5, a dual selective αVβ6/αVβ1-integrin inhibitor, and the corresponding Cmax levels and decrease in phosphorylation levels and were determined.
(§2) Healthy non-smoking adult males without history of lung disease were selected as subjects and were randomized into 4 cohorts. Broncoalevaolar lavage samples were obtained from all subjects 1 day prior to start of treatment. Cohorts 1 and 2 were administered 20 mg of a compound daily, wherein 3 subjects were administered the dual selective αVβ6/αVβ1-integrin inhibitor (Compound 5) per every 1 subject receiving a placebo compound. Cohorts 3 and 4 were administered 40 mg of a compound daily, wherein 3 subjects were administered the dual selective αVβ6/αVβ1-integrin inhibitor (Compound 5) per every 1 subject receiving a placebo compound. BAL samples and blood samples were taken from all subjects on Day −1 (baseline) and on Day 7 (end of treatment).

[6] = test system: pSMAD2:SMAD2 ratio in BAL; assay: as above; format: in vivo, human
Experimental: as §1, §2

[7] = test system: participants with idiopathic pulmonary fibrosis (IPF); assay: Phase 2a clinical trial: High Resolution CT-based Quantitative Lung Fibrosis (QLF) imaging; format: in vivo, human; settings: for Mean Percent Change in QLF Extent From Baseline to Week 12 (Mean Difference) / Median change in QLF Extent From Baseline to Week 12 / QLF extent change Baseline to Week 12: Improvers < −2%, % / QLF extent change Baseline to Week 12: Stable [−2, 2%), % / QLF extent change Baseline to Week 12: Worse > 2%, %: CT Protocol Population
Experimental: Study Design and Objectives. […] At Day 1, baseline values were collected.
[…]-IPF study design and objectives.
QLF was measured by computed tomography. […] QLF refers to quantitative lung fibrosis. […] Per CT protocol population: Participants with both baseline and post baseline high resolution computed tomography (HRCT) scans meet evaluability criteria per Imaging Charter.

[8] = FIG. 24 Venn region E: only altered by Compound 5 in the absence of pirfenidone
[9] = gene expression, combination vs individual treatment
[10] = single treatment, adj. p-value <0.05
[11] = 40 mg/day, after the dose on Day 7, subjects of FIG. 8A-8F

SMILES: COCCN(CCCCc1ccc2c(n1)NCCC2)CC[C@H](Nc1ncnc2ccccc12)C(=O)O [Compound 5, (S)-4-((2-methoxyethyl) (4-(5,6,7,8-tetrahydro-1,8-naphthyridin-2-yl)butyl)amino)-2-(quinazolin-4-ylamino) butanoic acid]
- Target engagement [1]: dose dependent
- Genes Down-regulated with Compound 5 and Pirfenidone Alone or in Combination, region E [2, 8]: COL3A1 and COL6A3 and LOXL1 and MARCO and MMP8 and PLPP4
- Genes Up-regulated with Compound 5 and Pirfenidone Alone or in Combination, region E [2, 8]: APOA2 and CIITA and IFI6 and NOS1 and OAS1 and TTN
- Genes Down-regulated with Compound 5 and Pirfenidone Alone or in Combination, region F ([2]; FIG. 24 Venn region F: altered by Compound 5 or pirfenidone alone, but not by Compound 5 in combination with pirfenidone): CXCR4; also recorded: PECAM1
- Genes up-regulated, Venn region E (FIG. 24) ([2]; IPF precision cut lung slices, 7 days, only altered by Compound 5 in the absence of nintedanib): APOA2 and CCL13 and CIITA and IFI6
- % Reduction APOC2 [2, 9]: −1.20%
- % Reduction CDH2 [2, 9]: 23.87%
- % Reduction COL1A1 [2, 9]: 38.78%
- % Reduction THBS2 [2, 9]: 31.47%
- logFC ALDH7A1 [2, 10]: 0.57
- logFC OAS1 [2, 10]: 0.6104
- cell adhesion in the IPF-derived lung fibroblasts [3]: substantially inhibited
- Serum PRO-C3, change from baseline relative to placebo [4]: decreased; also recorded: reduced; also recorded: dose-dependent reduction
- Cmax [5]: > 900 ng/mL
- Cmax (peak of the blood plasma concentration) [6, 11]: 700 to 900 ng/mL and < 700 ng/mL
- PD effect (relative change in pSMAD2:SMAD2 ratio from baseline in BAL) [6, 11]: sustained PD effect; also recorded: transitory PD effect; also recorded: no PD effect
- correlation of plasma Cmax with reduction of pSMAD2:SMAD2 ratio relative to baseline ([6]; 12 h and 24 h post-administration on Day 7): strongly correlated
- Mean Percent Change in QLF Extent From Baseline to Week 12 (Mean Difference) ([7]; 40 mg (N = 15)): 3.15%
- Median change in QLF Extent From Baseline to Week 12 ([7]; 40 mg (N = 15)): 1.50%
- QLF extent change Baseline to Week 12: Improvers < −2%, % ([7]; 40 mg (N = 15)): (6.6%)
- QLF extent change Baseline to Week 12: Stable [−2, 2%), % ([7]; 40 mg (N = 15)): (46.7%)
- QLF extent change Baseline to Week 12: Worse > 2%, % ([7]; 40 mg (N = 15)): (46.7%)
- Mean Percent Change in QLF Extent From Baseline to Week 12 (Mean Difference) ([7]; 80 mg (N = 18)): 0.7%
- Median change in QLF Extent From Baseline to Week 12 ([7]; 80 mg (N = 18)): −0.45%
- QLF extent change Baseline to Week 12: Improvers < −2%, % ([7]; 80 mg (N = 18)): (11.1%)
- QLF extent change Baseline to Week 12: Stable [−2, 2%), % ([7]; 80 mg (N = 18)): (72.2%)
- QLF extent change Baseline to Week 12: Worse > 2%, % ([7]; 80 mg (N = 18)): (16.7%)
- Mean Percent Change in QLF Extent From Baseline to Week 12 (Mean Difference) ([7]; 160 mg (N = 14)): 0%
- Median change in QLF Extent From Baseline to Week 12 ([7]; 160 mg (N = 14)): −0.10%
- QLF extent change Baseline to Week 12: Improvers < −2%, % ([7]; 160 mg (N = 14)): (28.6%)
- QLF extent change Baseline to Week 12: Stable [−2, 2%), % ([7]; 160 mg (N = 14)): (50.0%)
- QLF extent change Baseline to Week 12: Worse > 2%, % ([7]; 160 mg (N = 14)): (21.4%)
- Progression based on mean change from baseline in QLF ([7]; 160 mg and 320 mg groups, Week 12): No or limited progression
- Likelihood of stabilization or improvement of fibrosis (QLF) relative to placebo at Week 24 ([7]; 320 mg): twice as likely
- Mean (SD) Change in QLF Extent from Baseline at Week 12 ([7]; 320 mg (n=16), Per CT protocol population, placebo (n=25) 1.46%): 0.2%
- Patients with stable or improved QLF from baseline at week 24 ([7]; 320 mg, per CT protocol population, stable −2% to 2%, improved <−2%, placebo 33%): 71%
- Patients with worsened QLF from baseline at week 24 ([7]; 320 mg, per CT protocol population, worsened >2%, placebo 67%): 29%
- Antifibrotic effect on QLF imaging ([7]; 40 to 320 mg, Week 12): Dose-dependent antifibrotic effect
